Assays:
Rattus norvegicus = organism: Rattus norvegicus; test: Positive allosteric modulation of AMPAR in Sprague-Dawley rat primary culture of cerebellar neurons assessed as potentiation of kainate-induced current at 10 uM by whole-cell patch clamp electrophysiological method relative to control
[1] = Half life of the compound in pH 7.4 buffer assessed as compound racemization; type: physicochemical
[2] = Drug level in rat liver microsomes treated with (+/-)-7-Chloro-5-(3-furanyl)-3-methyl-3,4-dihydro-2H-1,2,4-benzothiadiazine 1,1-dioxide assessed as CYP450-mediated metabolite formation at 10 uM after 60 mins by LC-MS/MS analysis; type: ADME; details: 1 h

Structure (SMILES) | Activity (Rattus norvegicus) [%] | half-life [1] [h] | Drug metabolism [2]
CC1Nc2c(-c3ccoc3)cc(Cl)cc2S(=O)(=O)N1 (racemic) | 1600 | 1 | –
CC1Nc2ccc(Cl)cc2S(=O)(=O)N1 (configuration not stated) | 8 | – | –
C[C@@H]1Nc2c(-c3ccoc3)cc(Cl)cc2S(=O)(=O)N1 | 2590 | – | Metabolite_Detected
C[C@H]1Nc2c(-c3ccoc3)cc(Cl)cc2S(=O)(=O)N1 | 488 | – | Metabolite_Detected
